According to patent US20090217402A1, “METHODS AND COMPOSITIONS FOR MODULATING THE ACTIVITY OF PEPTIDASES IN MACROPHAGE AND MACROPHAGE-LIKE CELLS” (Emory University, priority 2005, published 2009):
“Also recorded” adds a separate entry of the source.

Tested on: B16-F10 melanoma cells
Test: B16-F10 melanoma tumor growth in wild type and ACE 10/10 mice with co-administered drug
Type: in vivo, mouse
Details: intradermal B16-F10 melanoma
Protocol: Quantitation of B16-F10 tumor growth in wild type and ACE 10/10 mice was also conducted between groups in which the ACE inhibitor captopril was also administered. […] This experiment establishes that it is the presence of ACE in the ACE 10/10 mice that is important in the observed effects on tumor growth compared to wild-type mice.
B16-F10 tumor protocol. B16-F10 melanoma cell line was obtained from ATCC (American Type Culture Collection, Manassas, Va., USA). Cells were cultured in DMEM supplemented with 4 mM L-glutamine, 4.5 g/l glucose, 10% FBS, and antibiotics under humidified air with 5% CO2 at 37° C. […] The supernatant was removed, cell pellets were resuspended in PBS, and the cell number was counted.
Mice aged 8 to 12 weeks received exponentially growing cells (1×10^6) interdermally into the dorsal skin using a disposable 27-gauge needle under anesthesia (28 mg/kg avertin, intraperitoneally). Measurements of tumor size (longest and shortest diameters) were done using calipers at the 11th and 14th day, and body weight was measured at the day of inoculation (Day 0) and at harvesting (the 14th day), respectively. Tumor volume was calculated by the formula for a prolate spheroid according to the equation (L [longest diameter] H S2 [shortest diameter] H 0.52)=tumor volume.

Row | Compound | B16-F10 tumor growth (resistance of ACE 10/10 mice to melanoma)
1 | C[C@H](CS)C(=O)N1CCC[C@H]1C(=O)O [captopril] | comparable to wild-type mice in terms of susceptibility to tumor growth
2 | CCCCc1nc(Cl)c(CO)n1Cc1ccc(-c2ccccc2-c2nn[nH]n2)cc1 [losartan] | does not inhibit the ability of the ACE 10/10 mice to resist melanoma; also recorded: did not inhibit the ability of the ACE 10/10 mice to resist melanoma growth
